Test results as given in patent US7101707B2, “Secondary sprouting for isolation and expansion of endothelial sprout cells and endothelial precursor cells from a mixed population and for screening substances” (Cedars-Sinai Medical Center, priority 2002, dated 2006).
Entries after “also recorded” stand apart in the source; their conditions may differ.

Key:
bovine REC [1] = assay: REC proliferation assay (MTS); format: cell-based
Protocol: REC proliferation and survival assays. 96-well plates were coated with various amounts of TN-C or vehicle. 5×10^3 cells were added to each triplicate well in low-serum REC medium with various amounts of growth factors (0.5% FCS incomplete BREC medium containing 10 ng/ml of human IGF-I, FGF-2, VEGF, PlGF and PDGF-BB [R&D Systems Inc., Minneapolis, Minn.]). Cell numbers were determined on days 4–7 using the MTS cell proliferation assay (Promega Corp.) according to manufacturer's instructions. Survival was measured in the same way using high glucose (30 mM) or chemical hypoxia (2 mM sodium azide) or serum-free medium to induce cell death. Cell numbers were determined on days 4–7 using MTS assay (Promega).

bovine REC [2] = assay: Secondary sprouting assay on reconstituted basement membrane matrix (MTS); format: cell-based
Protocol: (§1) In vitro MATRIGEL™ biological cell culture substrate assay of capillary-like tube formation and secondary sprouting. […] Briefly, 50 μL of reconstituted basement membrane matrix from mouse EHS tumor (BD or GFR MATRIGEL™ biological cell culture substrate; Becton Dickinson Labware, Bedford, Mass.) were dispensed with frozen pipettes into each well of a previously frozen, sterile 96-well plate sitting on wet ice and allowed to solidify for 1 hr at room temperature or 37° C. Approximately 5×10^4 or 7.5×10^4 REC in a 100 μL volume were seeded into each triplicate well. Human recombinant or purified growth factors were added to a final concentration of 10 ng/mL (or as noted) in 0.5% FCS incomplete BREC medium. Capillary-like tube structures formed by REC on reconstituted basement membrane matrix were photographed at various intervals ranging from 12–72 hr; pictures were scanned, digitized and analyzed using image-processing software.
For the secondary sprouting assay, cells on reconstituted basement membrane matrix were seeded as above but incubated in 0.5% FCS incomplete BREC medium without any growth factors for 3 days, allowing for tube formation and collapse. On day 3, human recombinant or purified growth factors were added to a final concentration of 10 ng/mL (or as noted) in low-serum incomplete BREC medium and incubated for another 5–6 days. Digital photographs were obtained with a Kodak MDS 100 camera attached to a Leitz DM IL inverted microscope. Digitized images obtained with a Kodak MDS 100 video camera were stored on compact discs and quantified with NIH Image 1.62 software. The number of living cells in the sprouting colonies were determined using the MTS cell proliferation assay.
A good correlation was observed between the spherical volume and the number of live cells in secondary sprouting colonies (not shown). Since the latter is an easy parameter to test by using the MTS assay, it was adopted as a faster method for studying the effect of various agents on secondary sprouting.

bovine REC [3] = assay: Migration (wound healing) assay; format: cell-based
Protocol: Migration assay. REC migration rates were examined in a wound healing assay, where cells migrate over time into the scrape wound in a monolayer. Briefly, cells were seeded in 24-well plates and allowed to reach confluence in growth medium. Prior to growth factor treatment, cells were serum-starved overnight in incomplete BREC medium with 0.5% FCS. All monolayers within an experiment were wounded with a single sterile wood stick of constant diameter, to ensure uniformity in the wound areas among different treatments. Wounded monolayers were then rinsed with low-serum medium to remove detached cells and treated with various combinations of human growth factors at 10 ng/mL each. On day 7, cells were rinsed 3× with PBS and fixed with methanol for 15 min, rehydrated with dH2O and stained with Meyer's hematoxylin for 5 min, followed by destaining with dH2O. All wells were photographed with a 4× or 10× objective using a Kodak MDS 100 digital camera attached to a Leitz DM IL inverted microscope. The original wound area was measured at 0 hr and used as a baseline for comparison to the treated wells at the conclusion of the experiment. The number of cells migrated into the wound was determined. Migrating cell counting was automated using the AAB (Advanced American Biotechnology, Fullerton, Calif.) software. Data were calculated and statistically analyzed (Spirin K S et al., Basement membrane and growth factor gene expression in normal and diabetic human retinas, Curr. Eye Res. 18:490–499 [1999]) relative to control cultures that received the same concentrations of bovine serum albumin instead of growth factors and/or inhibitor, compared to vehicle instead of inhibitor after wounding. Inhibitors were added 30 min before growth factors.

REC = assay: Capillary-like tube formation on MATRIGEL; format: cell-based, bovine
Protocol: as §1

[4] = system: retinal neovascularization; assay: Oxygen-induced retinopathy in newborn mice; format: in vivo, mouse
[5] = Solubility of emodin in injection vehicle; format: physicochemical; conditions: phosphate-buffered saline with 20% PEG 400 + 2% Tween-80, pH 7.2
Protocol: A minimum of 5 mouse pups were used per group. Emodin at 20–30 μg/g of body mass (or 10 μl/g) was prepared as a solution (70% ethanol) or suspension (PEG-Tween) in vehicle. Vehicle (“emodin solvent”) was 70% ethanol in initial experiments. In three later experiments, phosphate-buffered saline with 20% polyethylene glycol 400 (PEG 400)+2% Tween-80, pH 7.2, was used as vehicle.

telomerase = assay: Telomerase assay (TRAP) in cultured endothelial cells; format: cell-based
Excerpt: Cells in secondary sprouting colonies contained high telomerase activity (FIG. 10, 3rd column) when compared to the parental cells (1st column), as measured by telomerase assay (TRAP; Yang, J., et al., Stem and germline cells are among the only cells in postnatal tissues that continue to express telomerase activity, J. Biol. Chem. 274(37):26141–26148 [1999]; Hsiao, R. et al., Mature endothelial cells express very low levels of telomerase and it's lost during the first five divisions in vitro, Anticancer Res 17:827–832 [1997]; Kolquist, K A et al., Nature Genet 19:182–186 [1998] as reviewed by Chang E et al. J. Invest. Dermatol. 118:752–8. [2002]). This enzyme activity is either very low or absent in aging or differentiated cells, but it is high in precursors. (Armstrong et al., mTert expression correlates with telomerase activity during the differentiation of murine embryonic stem cells. Mech Dev. 2000. 97(1–2):109–116). Telomerase activity is also high in invasive and highly proliferative cancers but not in normal adult cells. (Blasco et al., Telomeres and telomerase. Genes & Development. 1999. 13:2353–2359).

[6] = system: secondary sprouting colonies; assay: Marker expression in secondary sprouting colonies (RT-PCR, immunofluorescence); format: cell-based; conditions: treatment of secondary sprouting colonies
Protocol: Detection of markers expressed by cells selected from secondary sprouting colonies was carried out using reverse-transcriptase polymerase chain reaction (RT-PCR) with RNA derived from secondary sprouting cells, which was compared to RNA derived from non-sprouting cells. The RT-PCR method allows the detection of low-levels of message coding for the above-mentioned markers. Following manufacturer's instructions, RNA isolation was done with a QiaShredder kit (Qiagen) on isolated sprouts (scooped out of MATRIGEL™ biological cell culture substrate) followed by use of the RNAeasy kit (Qiagen), and the RT-reaction was conducted using a SMART cDNA kit (Clontech) and the RT-PCR protocol, as described in Hamdi et al., Biochem Biophys Res Commun. 295(3):668–72 [Jul. 19, 2002] but using approx. 50 ng of cDNA instead of genomic DNA per PCR reaction. The following primers were used: […]

[7] = basal and growth factor-stimulated (CK2 blockers), H-7 preliminary, not shown

Molecule: Cc1cc(O)c2c(c1)C(=O)c1cc(O)cc(O)c1C2=O [emodin, 3-methyl-1,6,8-trihydroxyanthraquinone]
- effect of kinase inhibitors on proliferation (bovine REC [1]; [7]): potently inhibited
- effect of kinase inhibitors on secondary sprouting (bovine REC [2]; [7]): potently inhibited
- effect of kinase inhibitors on migration (bovine REC [3]; [7]): potently inhibited
- effect on growth factor-mediated cell migration (bovine REC [3]; four GFs 10 ng/ml each, 7 days, 0.5% serum, emodin 10 μM, DRB 15 μM): significant inhibitory effect
- effect of kinase inhibitors on tube formation (REC; [7]): potently inhibited
- neovascular tufts in fluorescein angiograms vs vehicle control ([4]; intraperitoneal): much less pronounced
- retinal vascularization in fluorescein angiograms vs vehicle control ([4]; intraperitoneal): significantly less vascularization
- diminution of retinal neovascularization (preretinal nuclei count) ([4]; two intraperitoneal injections daily, day 11 to 17 after birth, emodin 20–30 μg/g, vs untreated or vehicle): 70–75%
- solubility in vehicle [5]: did not ensure emodin solubility

Molecule: PDGF-BB: platelet derived growth factor (PDGF)-BB, human recombinant or purified angiogenic growth factor
- effect of growth factors on REC proliferation (bovine REC [1]; growth factors 10 ng/mL each): potent stimulator
- morphology of sprouting colonies after growth factor treatment (bovine REC [2]; 10 ng/mL): shorter and thicker sprouts
- effect of growth factors on secondary sprouting (live cell number) (bovine REC [2]; 10 ng/mL, 0.5% FCS medium): potently stimulated; also recorded: most potent single growth factor; also recorded: potent stimulator; also recorded: dramatic increase; also recorded: greatly enhanced; also recorded: the most potent
- additivity of effect on secondary sprouting with individual growth factors (bovine REC [2]; PDGF-BB 1 ng/mL ± VEGF, IGF-I, PlGF or FGF-2 10 ng/mL, added day 3): not additive or synergistic; also recorded: not additive
- effect on secondary sprouting when added after tube collapse (bovine REC [2]; growth factor added after the tubes had collapsed (day 3)): again increased secondary sprouting
- stimulation of secondary sprouting (fold, on average) (bovine REC [2]; growth factors, live cells by MTS): three-fold
- additivity of effect on secondary sprouting with combinations of three growth factors (bovine REC [2]; three growth factors 10 ng/mL each plus fourth factor 0–100 ng/mL, added day 3): potentiated their responses; also recorded: additive
- effect of growth factors on REC migration (bovine REC [3]; growth factors 10 ng/mL each): potent stimulator
- effect of growth factors on tube formation (REC; growth factors 10 ng/mL each): pro-collapsing factor
- telomerase activity of differentiated endothelial cells (telomerase; differentiative culture conditions (plastic, no MATRIGEL)): opposite effect
- telomerase activity of sprouting colonies (telomerase; expansive culture conditions (MATRIGEL, low serum medium)): increases the activity of telomerase
- expression of AC133, CD166, AML-1, uPA, tPA [6]: increased the expression
